Patent US20030186410A1, “Novel (r)-2-hydroxy-3-phenylpropionate (d-phenyllactate) dehydrogenase and gene encoding the same” (priority 2000, published 2003)

System: D-PLDH
Experiment: Relative enzyme activity of partially purified enzyme solution with different reaction substrates
Format: biochemical, Mycelia sterilia
Details: partially purified enzyme solution (Mono Q10/10) from pDPLDH-1-carrying E. coli, compound used as reaction substrate
Procedure: A 150 μl portion of buffer solution A containing 250 μM NADPH and 250 μM phenylpyruvic acid was dispensed into wells of a 96-well microtiter plate, 50 μl each of the crude enzyme solution was added and mixed immediately using a pipette, and a change in absorption at 340 nm at 26° C. was measured. The measurement was carried out using an Absorption Microassay Reader BioLumin 960 (Molecular Dynamics) to trace a decrease in absorption with time after the start of the reaction. The amount of the enzyme which oxidized 1 μmol of NADPH per minute was set to be one unit. Results are shown in Table 1 as the enzyme activity of the crude enzyme solution.
Further, the obtained crude enzyme solution was processed using Mono Q10/10 under the conditions described in Example 1-2 to prepare a partially purified enzyme solution. This partially purified enzyme solution was applied onto a 96-well microtiter with different concentrations of the substrate, phenylpyruvic acid, to measure enzyme activity. Further, enzyme activity was also measured with an alternative substrate, pyruvic acid, in place of phenylpyruvic acid. […]

| SMILES | Relative reaction rate (rate with phenylypyruvic acid = 100) |
| --- | --- |
| CC(=O)C(=O)O [Pyruvic acid] | 10 |
| O=C(O)C(=O)Cc1ccccc1 [Phenylpyruvic acid, 2-oxo-3-phenylpropionic acid] | 100 |
